Assay results from patent publication US12240846B2 (Enliven Inc., priority 2020, dated 2025).
Where a name gives a salt, the structure may show the parent alone.

Assays:
[1] = test system: pCRKL in K562 cells; test: pCRKL ELISA assay in K562 cells; assay type: cell-based; conditions: Homo sapiens, 1.5 h, 90 minutes incubation, read-out: pCRKL ELISA, Cell Line IC50 (nM) K562
Procedure: K562 or Ba/F3 ABL T315I cells (2.0*10^5 cells/100 μl/well) were seeded in 96 well (Corning, cat #3799). Compounds were dissolved in DMSO, serially diluted in DMSO and then were added, mixed, and incubated for 90 minutes at 37° C., 5% CO2. Following the 90-minute incubation, plates were centrifuged for 5 min at 3000 RPM and supernatant was removed from each well. Cells were washed 3 times with 150 μl PBS prior to addition of 100 μl cell RIPA lysis buffer (Boston BioProducts, cat #BP-115D) supplied with 1× complete ULTRA cocktail inhibitor (Roche, 05892791001) and 1× PhosSTOP Phosphatase Inhibitor Cocktail Tablets (Roche, 04906837001). Cells were incubated with lysis buffer for 1 hour at 4° C. prior to storage at −80C.
A capture antibody able to detect phosphorylated and non-phosphorylated CRKL (R&D Systems, cat #AF5127) was added to Meso Scale Discovery (MSD) standard bind plates (MSD, cat #L15XA-3) at 5 ug/mL and incubated at 4° C. overnight. The next day, plates were washed with PBS+ 0.05% Tween20 (PBST) and 150 μl of 5% BSA blocking solution was added for 1 hour at room temperature with shaking. Plates were washed with PBST. Lysates were thawed and 30 μl of lysate was added to the MSD plates and incubated for 2 hours at room temperature with shaking. MSD plates were washed with PBST and 30 μl of a detection antibody that binds phosphorylated pCRKL (R&D Systems, cat #MAB6910) was added at 1 ug/mL to each well. Plates were incubated for 1 hour at room temperature with shaking. Plates were washed with PBST prior to addition of 30 μl of a sulfo tagged goat anti mouse detection antibody (MSD cat #R32AC-1). Plates were incubated for 1 hour at room temperature with shaking. Plates were washed with PBST prior to addition of 150 ul of 1×MSD read buffer T (MSD, cat #R92TC-2). Electrochemiluminescence (ECLU) was read on an MSD plate reader (Meso Scale Discovery). The remaining activity by calculated as follows: % Relative activity=100× (ELCUsample−ECLULC)/(ECLUHC−ECLULC). The low and high controls (LC/HC) are generated from lysate from wells without cells or with cells treated with 0.1% DMSO, respectively. IC50 values were calculated using XLFit software using a nonlinear regression model with a sigmoidal dose response and are shown in Table 4 and Table 5 below.

[2] = molecular target: T1, ABL1 (Homo sapiens, UniProt P00519); test: Luminescence-based ABL kinase assay (300 μM ATP), ADP-Glo; assay type: biochemical
T1 construct: purchased Carna Biosciences
Text: Compounds were serially diluted in DMSO. […] Luminescence signal positively correlates with kinase activity.

[3] = test system: HL60 cells; test: HL60 cell proliferation assay (CellTiter-Glo); assay type: cell-based; conditions: Homo sapiens, HL-60, HL60 cell viability, 72 hours, read-out: Cell Line (IC50, nM) HL60
[4] = molecular target: ABL1 (T315I) (Homo sapiens, UniProt P00519, T315I); test: Luminescence-based ABL kinase assay (300 μM ATP), ADP-Glo; assay type: biochemical
[5] = test system: K562 cells; test: K562 cell proliferation assay (CellTiter-Glo); assay type: cell-based; conditions: Homo sapiens, K562 cell viability, 72 hours, read-out: Cell Line (IC50, nM) K562

Compound | IC50 [1] [nM] | IC50 [2] [nM] | IC50 [3] [nM] | IC50 [4] [nM] | IC50 [5] [nM]
COc1ccccc1-c1c(C)c2cnc(NC(=O)[C@H]3C[C@H]3F)cc2n1C [Compound 53, (1R,2R)-2-fluoro-N-[2-(2-methoxyphenyl)-1,3-dimethylpyrrolo[3,2-c]pyridin-6-yl]cyclopropane-1-carboxamide] | 574 | 82.4 | > 10000 | 8.3 | 90.9
COc1ccnc(OC)c1-c1cc2cc(NC(=O)[C@H]3C[C@@H]3CN3CCNCC3)ncc2n1C (single isomer, unassigned) [Compound 138] | 254 | 12.8 | – | 24.4 | –
COc1nccc(OC2CC2)c1-c1cc2cc(NC(=O)[C@@H]3C[C@@H]3F)ncc2n1C [Compound 90, (1S,2S)-N-[2-(4-cyclopropoxy-2-methoxypyridin-3-yl)-1-methylpyrrolo[2,3-c]pyridin-5-yl]-2-fluorocyclopropane-1-carboxamide] | 29.8 | 2.26 | 548 | 22.2 | 6.01
COc1ccnc(OC)c1-c1cc2cc(NC(=O)[C@H]3C[C@@H]3CN3CCN(C)CC3)ncc2n1C (single isomer, unassigned) [Compound 120] | 108 | 27.1 | > 10000 | 39.8 | 47.6
COc1cccc(OC)c1-c1cc2cc(NC(=O)[C@@H]3C[C@@H]3F)ncc2n1C [Compound 119, (1S,2S)-N-[2-(2,6-dimethoxyphenyl)-1-methylpyrrolo[2,3-c]pyridin-5-yl]-2-fluorocyclopropane-1-carboxamide] | – | 2.38 | 159 | 1.76 | 9.35
COc1ccnc(OC)c1-c1cc2cc(NC(=O)[C@H]3C[C@@H]3CN(C)C)ncc2n1C (single isomer, unassigned) [Compound 123] | – | 59.4 | 1770 | 80.6 | 106
COc1ccccc1-c1cc2cc(NC(=O)[C@H]3C[C@H]3CO)ncc2n1C (relative stereo) [Compound 23, cis-2-(hydroxymethyl)-N-(2-(2-methoxyphenyl)-1-methyl-1H-pyrrolo[2,3-c]pyridin-5-yl)cyclopropane-1-carboxamide] | – | 119 | 1690 | 79.5 | 631
Cn1c(-c2cccc3[nH]cnc23)cc2cc(NC(=O)[C@@H]3C[C@@H]3F)ncc21 [Compound 73, (1S,2S)-N-[2-(1H-1,3-benzodiazol-4-yl)-1-methylpyrrolo[2,3-c]pyridin-5-yl]-2-fluorocyclopropane-1-carboxamide] | – | 519 | > 10000 | 315 | 3710
CNc1nc(OC)c(-c2cc3cc(NC(=O)[C@@H]4C[C@@H]4F)ncc3n2C)c(OC)n1 [Compound 105, (1S,2S)-N-(2-(4,6-dimethoxy-2-(methylamino)pyrimidin-5-yl)-1-methyl-1H-pyrrolo[2,3-c]pyridin-5-yl)-2-fluorocyclopropane-1-carboxamide] | – | 71.4 | 199 | 79 | 60.9
CCc1ncnc(OC)c1-c1cc2cc(NC(=O)[C@@H]3C[C@@H]3F)ncc2n1C [Compound 92, (1S,2S)-N-[2-(4-ethyl-6-methoxypyrimidin-5-yl)-1-methylpyrrolo[2,3-c]pyridin-5-yl]-2-fluorocyclopropane-1-carboxamide] | – | 494 | > 10000 | 1650 | 227
CCOc1ncccc1-c1cc2cc(NC(=O)[C@@H]3C[C@@H]3F)ncc2n1C [Compound 36, (1S,2S)-N-[2-(2-ethoxypyridin-3-yl)-1-methylpyrrolo[2,3-c]pyridin-5-yl]-2-fluorocyclopropane-1-carboxamide] | – | 6.33 | 3630 | 308 | 105
COc1cc2[nH]cnc2cc1-c1cc2cc(NC(=O)[C@@H]3C[C@@H]3F)ncc2n1C [Compound 28, (1S,2S)-2-fluoro-N-(2-(6-methoxy-1H-benzo[d]imidazol-5-yl)-1-methyl-1H-pyrrolo[2,3-c]pyridin-5-yl)cyclopropanecarboxamide formate] | – | 9.95 | 233 | 19.8 | 30.4

Second part, the molecule after the results:

IC50 [1] [nM] | IC50 [2] [nM] | IC50 [3] [nM] | IC50 [4] [nM] | IC50 [5] [nM] | Compound
553 | 40.7 | 761 | 1.85 | 112 | COc1cccc(F)c1-c1cc2cc(NC(=O)[C@@H]3C[C@@H]3F)ncc2n1C [Compound 27, (1S,2S)-2-fluoro-N-[2-(2-fluoro-6-methoxyphenyl)-1-methylpyrrolo[2,3-c]pyridin-5-yl]cyclopropane-1-carboxamide]
303 | 30.3 | 2930 | 8.99 | 174 | COc1ccc(F)cc1-c1cc2cc(NC(=O)[C@@H]3C[C@@H]3F)ncc2n1C [Compound 26, (1S,2S)-2-fluoro-N-[2-(5-fluoro-2-methoxyphenyl)-1-methylpyrrolo[2,3-c]pyridin-5-yl]cyclopropane-1-carboxamide]
– | 1690 | > 10000 | > 10000 | > 10000 | COc1ncnc(O)c1-c1cc2cc(NC(=O)[C@@H]3C[C@@H]3F)ncc2n1C [Compound 106, (1S,2S)-2-fluoro-N-[2-(4-hydroxy-6-methoxypyrimidin-5-yl)-1-methylpyrrolo[2,3-c]pyridin-5-yl]cyclopropane-1-carboxamide]
– | 36.6 | 3320 | 76.4 | 91.5 | COc1ccnc(OC)c1-c1cc2cc(NC(=O)[C@H]3C[C@H]3F)ncc2n1C [Compound 97, (1R,2R)-N-[2-(2,4-dimethoxypyridin-3-yl)-1-methylpyrrolo[2,3-c]pyridin-5-yl]-2-fluorocyclopropane-1-carboxamide]
– | 32.5 | 1610 | 47.8 | 139 | [2H]C([2H])([2H])n1c(-c2cccnc2OC)cc2cc(NC(=O)[C@@H]3C[C@@H]3F)ncc21 [Compound 64, (1S,2S)-2-fluoro-N-(2-(2-methoxypyridin-3-yl)-1-(methyl-d3)-1H-pyrrolo[2,3-c]pyridin-5-yl)cyclopropane-1-carboxamide]
– | 76.6 | 2110 | 15 | 153 | COc1nccc(F)c1-c1cc2cc(NC(=O)[C@@H]3C[C@@H]3F)ncc2n1C [Compound 89, (1S,2S)-2-fluoro-N-[2-(4-fluoro-2-methoxypyridin-3-yl)-1-methylpyrrolo[2,3-c]pyridin-5-yl]cyclopropane-1-carboxamide]
– | 119 | 320 | 139 | 245 | COc1c(-c2cc3cc(NC(=O)[C@@H]4C[C@@H]4F)ncc3n2C)ccc2cn[nH]c12 [Compound 30, (1S,2S)-2-fluoro-N-(2-(7-methoxy-1H-indazol-6-yl)-1-methyl-1H-pyrrolo[2,3-c]pyridin-5-yl)cyclopropane-1-carboxamide]
– | 49.2 | > 10000 | 47.6 | 217 | [2H]C([2H])([2H])n1c(-c2cc(F)cnc2OC)cc2cc(NC(=O)[C@@H]3C[C@@H]3F)ncc21 [Compound 65, (1S,2S)-2-fluoro-N-(2-(5-fluoro-2-methoxypyridin-3-yl)-1-(methyl-d3)-1H-pyrrolo[2,3-c]pyridin-5-yl)cyclopropane-1-carboxamide]
– | 57.4 | 9640 | 127 | 79.4 | COc1ncnc(OC)c1-c1cc2cc(NC(=O)[C@H]3C[C@H]3F)ncc2n1C [Compound 94, (1R,2R)-N-[2-(4,6-dimethoxypyrimidin-5-yl)-1-methylpyrrolo[2,3-c]pyridin-5-yl]-2-fluorocyclopropane-1-carboxamide]
